In BigSolDB 2.1:

CC(=O)N1CCN(c2ccc(OC[C@@H]3CO[C@@](Cn4ccnc4)(c4ccc(Cl)cc4Cl)O3)cc2)CC1 (racemic)
Conditions | solubility (mole fraction)
in PEG-200, 298.2 K | 0.00611
in PEG-200, 303.2 K | 0.00718
in PEG-200, 308.2 K | 0.00908
in PEG-200, 313.2 K | 0.0118
in PEG-200, 318.2 K | 0.0144

in water
Conditions | solubility (mole fraction)
298.2 K | 4e-07
303.2 K | 5e-07
308.2 K | 5e-07
313.2 K | 7e-07
318.2 K | 9e-07
